US9574176B2 (priority 2012, dated 2017)

What was measured:
[1] = system: WT mouse-derived neural stem cells; type: cell-based
[2] = system: human neural progenitor cells (NHNP); type: cell-based

ω-conotoxin GVIA
differentiation after passaging with inhibitor [1]: differentiation into Tuj-1 (class III β-tubulin)-positive nerve cells and GFAP (grail fibrillary acidic protein)-positive astrocytes could be confirmed | differentiation after passaging with inhibitor [2]: many cells differentiate into Tuj-1 (class III β-tubulin)-positive nerve cells and some cells differentiate into GFAP (grail fibrillary acidic protein)-positive astrocytes
